Measurements published in patent publication US20240245770A1, “COMPOSITIONS AND METHODS FOR TREATING NEUROMUSCULAR DISORDERS” (The Regents of the University of California, priority 2019, published 2024).

Tests used:
Assay type in all cases: cell-based, human
PBMCs = assay: PBMC flow cytometry, percentages of immune subsets
Experimental: Percentage of immune subsets in PBMCs in lab blood drawn. PBMC were isolated from peripheral blood of donors using ficoll-hypaque gradient centrifugation. The percentages of each cell subset in PBMCs were determined by flow cytometric analysis after staining with specific fluorescent conjugated antibodies directed to the cell surface receptors. No significant differences in the percentages of immune subsets between the donors (FIG. 1A and FIG. 1B).

[1] = tested on: Oral squamous carcinoma cells (OSCCs) and Oral squamous stem cell carcinoma (OSCSCs); assay: NAC blocking of CDDP mediated cell death (PI staining, flow cytometry); conditions: NAC 20 mM, 24 hours, OSCCs and OSCSCs
Experimental: Testing and selection of the best NAC to be used in ALS treatment. […] Afterwards OSCCs and OSCSCs were detached, and the viability of cells was determined after PI staining followed by flow cytometric analysis. In this figure Forward and Side Scatters (Fs/ss) were assessed since decrease in the Fs/ss is seen in cells undergoing cell death.
Testing and selection of the best NAC to be used in ALS treatment. […] Afterwards OSCCs and OSCSCs were detached, and the viability of cells was determined after PI staining followed by flow cytometric analysis. In this figure the percentage of PI stained cells were assessed.

[2] = tested on: Dental Pulp Stromal Cells (DPSCs); assay: NAC blocking of H2O2 mediated cell death in DPSCs; conditions: NAC 20 mM, 24 hours, FIG. 67
Experimental: Testing and selection of the best NAC to be used in ALS treatment. […] Afterwards DPSCs were detached, and the viability of cells was determined after PI staining followed by flow cytometric analysis. In this figure the decrease in FS/ss and the percentage of PI stained cells were assessed.

[3] = ALS patient H107 JC, Post-NAC, Pre-young plasma
[4] = ALS patient H110 RS, Post-NAC infusion

CC(=O)N[C@@H](CS)C(=O)O [NAC, N-Acetyl-Cysteine]
CD4, percentage of immune subset (PBMCs; [3]): 31.4%
CD8, percentage of immune subset (PBMCs; [3]): 15.1%
CD14, percentage of immune subset (PBMCs; [3]): 15.0%
CD19, percentage of immune subset (PBMCs; [3]): 24.6%
NK, percentage of immune subset (PBMCs; [3]): 11.5%
NKT, percentage of immune subset (PBMCs; [3]): 3.58%
total of immune subsets (PBMCs; [3]): 97.6%
CD4, percentage of immune subset (PBMCs; [4]): 27.6%
CD8, percentage of immune subset (PBMCs; [4]): 20.4%
CD14, percentage of immune subset (PBMCs; [4]): 27.1%
CD19, percentage of immune subset (PBMCs; [4]): 10.0%
NK, percentage of immune subset (PBMCs; [4]): 15.3%
total of immune subsets (PBMCs; [4]): 100.4%
CDDP mediated cell death, Forward and Side Scatters (Fs/ss) ([1]; FIG. 65): blocks CDDP mediated Cell death in Oral tumors
CDDP mediated cell death, percentage of PI stained cells ([1]; FIG. 66): blocks CDDP mediated Cell death in Oral tumors
H2O2 mediated cell death (Fs/ss and PI positive cells) [2]: blocks H2O2 mediated Cell death in DPSCs
